Reference: patent US9695179B2, “Methods and compositions for inhibition of bromodomain-containing proteins” (CONVERGENE LLC, priority 2013, dated 2017)

Experiments:
human BRD4 protein = human BRD4 protein (Homo sapiens (Human), UniProt O60885); experiment: AlphaScreen assay, BRD4 (bromodomain 1 and 2) with histone H4 peptide; format: binding; conditions: for IC50: 25 nM BRD4, histone H4 peptide, 8 concentrations (10 nM-10 μM), read-out: BRD4-BD1-BD2 IC50; for BRD4-BD1-BD2 % Inhibition: test compounds assayed at 10 μM or 31.6 μM for screening
Method: The interactions between test compounds and BRD4 protein containing both bromodomain 1 and bromodomain 2 were measured with human BRD4 protein with N-terminal His tag (BPS Bioscience, San Diego, Calif.) using AlphaScreen® assay at room temperature. A 9 μl reaction mixture in BRD Assay Buffer (BPS Bioscience) containing 25 nM BRD4 and test compounds at various concentrations were incubated for 30 minutes followed by additional 30-minute incubation with 1 μl of 20 μM histone H4 peptide (residue 1-21) in the presence of 5% DMSO. Test compounds (see Table 4) were assayed at 10 μM or 31.6 μM for screening purpose, while 8 different concentrations (10 nM-10 μM) were used for IC50 measurements. After the incubation, 20 μl of BRD Detection Buffer (BPS Bioscience) containing 10 μg/ml Glutathione Acceptor beads and 10 μg/ml Streptavidin Donor beads (PerkinElmer, Waltham, Mass.) was added and the mixture was incubated for 50 minutes in darkroom. Binding measurements were taken in duplicate at each concentration using EnSpire® Alpha Multimode Plate Reader Model 2390 (PerkinElmer). The AlphaScreen data were analyzed using Graphpad Prism (La Jolla, Calif.). In the absence of the compound, the AlphaScreen signal (At) in each data set was defined as 100% activity. In the absence of the histone H4 peptide ligand, the AlphaScreen signal (Ab) in each data set was defined as 0% activity. The percent activity in the presence of each compound was calculated according to the following equation: % activity=[(A−Ab)/(At−Ab)]×100, where A=the AlphaScreen signal in the presence of compound; Ab=the AlphaScreen signal in the absence of the histone peptide ligand; and At=the AlphaScreen signal in the absence of the compound. The percent inhibition was calculated according to the following equation: % inhibition=100−% activity.

[1] = system: MV4-11 acute myeloid leukemia cells; experiment: In vitro cell viability (AlamarBlue), MV4-11; format: cell-based; conditions: Homo sapiens, MV4-11 cells, 72-hour incubation, read-out: In Vitro Cell Viability (IC50) MV4-11 Cells (AML)
Method: MV4-11 acute myeloid leukemia cells (American Type Culture Collection, Manassas, Va.) were added to 96-well clear bottom assay plates containing RPMI-1640 medium supplemented with 10% fetal bovine serum (FBS) at approximately 30,000 cells/well and incubated for 24 hours at 37° C. with 5% CO2 and 95% humidity. Control wells containing no cells were included to measure background fluorescence signal. Test compounds were dissolved at […] and diluted two-fold in DMSO to produce a working stock of compound solutions. Aliquots of the working stock solutions were subsequently diluted 100-fold in basal RPMI-1640 medium which was then further diluted 10-fold to the assay plate containing the cells to provide 10 test concentrations ranging from 0.04 μM-20 μM. Following a 72-hour incubation period, viability of the cells was determined by the AlamarBlue® assay (Life Technologies, Carlsbad, Calif.) following the manufacturer's protocol. Prior to generation of dose response curves, the data were background subtracted using the no cell control values (mean+/−standard deviation) and fluorescence values versus Log10 concentration of test compounds were plotted using GraphPad Prism. The resulting sigmoidal curve was then fit to the graph and IC50 values were calculated using a 4 parameter (4PL) algorithm using the following equation: 4(PL)F(x)=(A−D)/(1+(x/c)^B+D, where A=lower asymptote (baseline response), D=upper asymptote (maximum response), C=drug concentration that provokes a response halfway between A and D, B=slope of the curve. The results for selected compounds are set forth in Table 7.

BRD4-BD1-BD2 = BRD4-BD1-BD2 (Homo sapiens (Human), UniProt O60885); experiment: AlphaScreening assay, recombinant BRD4-BD1-BD2 and BET Ligand; format: binding; conditions: 2.5 nM BRD4-BD1-BD2, BET Ligand
Method: Assays were performed by AlphaScreening technology using a recombinant BRD4-BD1-BD2 and BET Ligand. The AlphaScreening signal from the assay was correlated with the amount of BET Ligand binding to the bromodomain. The compounds were diluted in 50% DMSO and 1 μl of the dilution was added to a 10 μl reaction so that the final concentration of DMSO is 5% in all of reactions. All reactions were conducted at room temperature. The 9 μl reaction mixture in BRD Assay Buffer contains 2.5 nM BRD4-BD1-BD2 and the indicated amount of the inhibitor, and the reaction mixture were incubated for 30 min followed by additional 30 min incubation after the addition of 1 μl of BET Ligand (Table 2.3.1). For the negative control (blank), 1 μl of the assay buffer was added instead of the BET Ligand. After the 30 min incubation with the BET Ligand, 20 μl of BRD Detection buffer containing 10 μg/ml Glutathione acceptor beads and 10 μg/ml Streptavidin Donor beads was added and the final 30 μl mixture was incubated for 50 min in a dark room.
AlphaScreening signal was measured using EnSpire Alpha 2390 Multilabel reader (Perkin Elmer). Binding experiments were performed in duplicate at each concentration. The AlphaScreening data were analyzed using the computer software, Graphpad Prism. In the absence of the compound, the AlphaScreening signal (At) in each data set was defined as 100% activity. In the absence of the BET Ligand, the AlphaScreening signal (Ab) in each data set was defined as 0% activity. The percent activity in the presence of each compound was calculated according to the following equation: % activity=[(A−Ab)/(At−Ab)]×100, where A=the AlphaScreening signal in the presence of the compound, Ab=the AlphaScreening signal in the absence of the BET Ligand, and At=the AlphaScreening signal in the absence of the compound. The percent inhibition was calculated for certain compounds according to the following equation: % inhibition=100−% activity.

Row | SMILES | IC50 (human BRD4 protein) [µM] | BRD4-BD1-BD2 % Inhibition (human BRD4 protein) [%] | IC50 [1] [µM] | inhibition at 10 µM (BRD4-BD1-BD2) [%] | % inhibition at 10 μM (BRD4-BD1-BD2) [%]
1 | COc1ccc(Cn2c(=O)c(-c3coc(C)n3)c(OS(=O)(=O)c3ccc(Cl)cc3)c3cc(Cl)ccc32)cc1 [Compound 86] | 0.67 | 99 | – | – | –
2 | Cc1noc(C)c1-c1ccc2[nH]c(=O)c(C(=O)/C=C/c3ccccc3)c(-c3cccnc3)c2c1 [Compound 90] | 11.2 | 62 | – | – | –
3 | COc1ccc(-c2cc(=O)[nH]c(Sc3c(-c4ccccc4)c4cc(Cl)ccc4[nH]c3=O)n2)cc1 [Compound 98] | 6.7 | 64 | – | – | –
4 | O=c1[nH]c2ccc(Cl)cc2c(-c2ccccc2)c1SC(=S)N1CCOCC1 [Compound 121] | 7.3 | 68 | – | – | –
5 | CCN(CC)CCCNC(=O)C1CCCN(c2c(-c3ccccc3)c3cc(Cl)ccc3[nH]c2=O)C1 (centres unmarked) [Compound 127] | – | – | 5.45 | – | –
6 | CNC(=S)N1N=C(c2c(-c3ccccc3)c3cc(Cl)ccc3[nH]c2=O)CC1c1ccccc1 (centres unmarked) [Compound 128] | 16.3 | 64 | – | – | –
7 | COc1ccc(OC)c(NCc2c(OC)ccc3ccccc23)c1 [Compound 143] | – | 99 | – | – | –
8 | Cc1noc(C)c1-c1ccc2[nH]c(=O)c(C(=O)/C=C/c3ccccc3)c(-c3cccnc3)c2c1 [drawing 644] | – | – | – | 62 | –
9 | Cc1ccc(-c2nnc(Sc3c(-c4ccccc4)c4cc(Cl)ccc4[nH]c3=O)n2/N=C/c2ccccc2)cc1 [drawing 647] | – | – | – | – | 71

Now from value to molecule:

Row | IC50 (human BRD4 protein) [µM] | BRD4-BD1-BD2 % Inhibition (human BRD4 protein) [%] | IC50 [1] [µM] | inhibition at 10 µM (BRD4-BD1-BD2) [%] | % inhibition at 10 μM (BRD4-BD1-BD2) [%] | SMILES
10 | 0.139 | 99 | – | – | – | COc1ccc(Cn2c(=O)c(-c3coc(C)n3)c(OS(=O)(=O)c3ccc4ccccc4c3)c3cc(Cl)ccc32)cc1 [Compound 87]
11 | 0.864 | 98 | – | – | – | COc1ccc(Cn2c(=O)c(-c3coc(C)n3)c(OS(=O)(=O)c3cccc4cccnc34)c3cc(Cl)ccc32)cc1 [Compound 88]
12 | 0.586 | 99 | – | – | – | COc1ccc(Cn2c(=O)c(-c3coc(C)n3)c(OS(=O)(=O)c3ccc(-c4ccccc4)cc3)c3cc(Cl)ccc32)cc1 [Compound 89]
13 | 5.8 | 59 | – | – | – | C=CCn1c(Sc2c(-c3ccccc3)c3cc(Cl)ccc3[nH]c2=O)nnc1-c1cccs1 [Compound 97]
14 | 26.8 | 65 | – | – | – | CCN(CC)C(=S)Sc1c(-c2ccccc2)c2cc(Cl)ccc2[nH]c1=O [Compound 122]
15 | 17.3 | 50 | – | – | – | O=c1[nH]c2cc(Cl)ccc2c(-c2ccccc2)c1Sc1nc2ccccc2s1 [Compound 124]
16 | 23.6 | 50 | – | – | – | CSc1nsc(Sc2c(-c3ccccc3)c3ccc(Cl)cc3[nH]c2=O)n1 [Compound 126]
17 | 3.7 | 92 | – | – | – | Cc1ccc(-c2nnc(Sc3c(-c4ccccc4)c4cc(Cl)ccc4[nH]c3=O)n2N)cc1 [Compound 132]
18 | 0.049 | >90 | – | – | – | O=c1[nH]c2ccc(Br)cc2c(-c2ccccc2)c1-c1cc(-c2ccccc2)[nH]c(=S)n1 [Compound 144]
19 | 1.44 | 72 | – | – | – | O=c1[nH]c2ccc(Cl)cc2c(-c2ccccc2)c1-c1cc(-c2ccccc2)[nH]c(=S)n1 [Compound 145]
20 | – | – | – | 70 | – | Cc1ccc(-c2nnc(Sc3c(-c4ccccc4)c4cc(Cl)ccc4[nH]c3=O)n2/N=C/c2ccccc2)cc1 [drawing 646]
